Results taken from patent US11584737B2, “Heterocyclic compound” (TAKEDA PHARMACEUTICAL COMPANY LIMITED, priority 2018, dated 2023).

What was measured:
CDK12/CycK complex = CDK12/CycK complex (Homo sapiens, UniProt Q9NYV4); experiment: Measurement of CDK12 inhibitory activity by binding assay (BODIPY-FL labeled AT-7519 high concentration conditions, 1320 nM); settings: inhibitory rate against CDK12 at 1 μM test compound, 1320 nM BODIPY-FL-labeled AT-7519, 8 nM CDK12/CycK
Protocol: (4) Measurement of CDK12 Inhibitory Activity by Binding Assay (BODIPY-FL Labeled AT-7519 High Concentration Conditions)
His-tagged CDK12/CycK complex was blended with a binding assay buffer supplemented with BODIPY-FL labeled AT-7519, terbium-labeled streptavidin and biotin-labeled anti-histidine antibody. This solution was added to an assay plate containing a test compound dispensed therein, and the mixture was left standing for 120 min at room temperature. The final concentration of CDK12/CycK complex, BODIPY-FL-labeled AT-7519, terbium-labeled streptavidin and biotin-labeled anti-histidine antibody was set to 8 nM, 1320 nM, 0.2 nM, and 0.4 nM, respectively. The fluorescence intensity derived from terbium and BODIPY-FL was measured using Envision. The signal value of each well was determined using the TR-FRET ratio calculated by the following formula. TR-FRET ratio=(fluorescence value of BODIPY-FL)÷(fluorescence value of terbium)
The inhibitory rate (%) of the test compound against CDK12 was calculated by the following formula. Inhibitory rate (%)=(1−(TR-FRET ratio of test compound−blank)÷(control−blank))×100
The TR-FRET ratio of the CDK12 enzyme reaction mixture under compound non-addition conditions is indicated as control, and the TR-FRET ratio under 30 μM AT-7519 addition conditions is indicated as blank.
The inhibitory rate of the test compound against CDK12 at 1 μM is shown below.

A2780 cells = experiment: In vitro proliferation suppression test (CellTiter-Glo); type: cell-based, human; settings: A2780 cell proliferation inhibitory rate at 1 μM test compound, three days; for inhibition at 1 µM: Homo sapiens, 72 h
Protocol: Experimental Example 4: In Vitro Proliferation Suppression Test
The proliferation suppressive activity of compound in A2780 cells was evaluated by the following method.
A2780 cells were seeded in a 384-well white plate at a cell density of 1,000 cells/40 μL/well or a 96-well white plate at a cell density of 1,000 cells/90 μL/well using an assay medium (RPMI1640 medium containing 10% fetal bovine serum (FUJIFILM Wako Pure Chemical Corporation)) and incubated at 37° C. in 5% CO2.
The next day, a test compound dissolved in dimethyl sulfoxide (DMSO) was diluted with an assay medium, the obtained compound solution was added by 40 μL/well or 10 μL/well to each well of the plate containing A2780 cells and the mixture was incubated (test compound addition group). In addition, a similar reaction was performed without adding the test compound (test compound non-addition group).
Three days later, 80 μL or 100 μL of CellTiter-Glo reagent (Promega) was added, and the mixture was stirred for 10 min. Thereafter, the luminescence of each well was measured by ARVO-MX multilabel counter (Perkin Elmer Inc.).
The proliferation inhibitory rate (%) of each test compound against A2780 cells was calculated by the following calculation formula. Proliferation inhibitory rate (%)=(1−luminescence of test compound addition group÷luminescence of test compound non-addition group)×100
The A2780 cell proliferation inhibitory rate (%) of 1 μM test compound is shown below.

Chain of CDK12/CycK complex (Q9NYV4 whole entry, species assumed): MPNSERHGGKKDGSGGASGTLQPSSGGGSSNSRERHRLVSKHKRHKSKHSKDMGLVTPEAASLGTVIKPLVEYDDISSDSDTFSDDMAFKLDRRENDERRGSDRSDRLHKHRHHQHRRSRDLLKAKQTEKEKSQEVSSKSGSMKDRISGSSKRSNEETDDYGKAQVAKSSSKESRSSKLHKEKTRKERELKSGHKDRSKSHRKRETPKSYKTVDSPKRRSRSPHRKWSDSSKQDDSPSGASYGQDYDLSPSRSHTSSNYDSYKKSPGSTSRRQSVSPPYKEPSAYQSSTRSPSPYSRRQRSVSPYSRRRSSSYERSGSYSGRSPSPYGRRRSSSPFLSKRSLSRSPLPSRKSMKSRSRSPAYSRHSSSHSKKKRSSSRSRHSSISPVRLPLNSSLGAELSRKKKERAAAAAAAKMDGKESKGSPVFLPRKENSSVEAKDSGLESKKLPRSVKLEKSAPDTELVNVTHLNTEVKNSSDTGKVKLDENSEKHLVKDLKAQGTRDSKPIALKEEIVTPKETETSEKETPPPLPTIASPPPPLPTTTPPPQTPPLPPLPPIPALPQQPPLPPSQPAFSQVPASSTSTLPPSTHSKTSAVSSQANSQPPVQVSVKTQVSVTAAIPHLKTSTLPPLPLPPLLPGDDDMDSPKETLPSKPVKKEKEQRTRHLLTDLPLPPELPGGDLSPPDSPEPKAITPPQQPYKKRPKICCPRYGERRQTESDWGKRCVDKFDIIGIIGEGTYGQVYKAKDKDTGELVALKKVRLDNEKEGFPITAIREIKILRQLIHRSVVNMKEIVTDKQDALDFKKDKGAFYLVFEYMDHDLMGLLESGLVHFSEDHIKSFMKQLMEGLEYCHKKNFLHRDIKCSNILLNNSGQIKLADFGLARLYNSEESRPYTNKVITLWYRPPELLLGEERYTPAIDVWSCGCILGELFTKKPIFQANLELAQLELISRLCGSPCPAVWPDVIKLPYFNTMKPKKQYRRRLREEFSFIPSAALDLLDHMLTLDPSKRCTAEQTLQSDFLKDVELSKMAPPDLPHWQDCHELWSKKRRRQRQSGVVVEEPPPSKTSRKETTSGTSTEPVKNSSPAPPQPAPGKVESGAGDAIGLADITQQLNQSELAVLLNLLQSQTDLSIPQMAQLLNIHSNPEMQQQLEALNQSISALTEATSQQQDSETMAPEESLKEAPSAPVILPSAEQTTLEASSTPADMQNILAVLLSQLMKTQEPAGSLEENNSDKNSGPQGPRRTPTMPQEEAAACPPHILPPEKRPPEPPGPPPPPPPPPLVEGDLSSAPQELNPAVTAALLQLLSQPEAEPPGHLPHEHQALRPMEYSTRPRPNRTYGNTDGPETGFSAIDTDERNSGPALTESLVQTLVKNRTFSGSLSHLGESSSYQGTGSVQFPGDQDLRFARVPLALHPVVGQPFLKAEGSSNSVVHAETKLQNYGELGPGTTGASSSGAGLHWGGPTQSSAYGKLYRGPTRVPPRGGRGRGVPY
Chain of CDK12/CycK complex (O75909 whole entry partner, species assumed): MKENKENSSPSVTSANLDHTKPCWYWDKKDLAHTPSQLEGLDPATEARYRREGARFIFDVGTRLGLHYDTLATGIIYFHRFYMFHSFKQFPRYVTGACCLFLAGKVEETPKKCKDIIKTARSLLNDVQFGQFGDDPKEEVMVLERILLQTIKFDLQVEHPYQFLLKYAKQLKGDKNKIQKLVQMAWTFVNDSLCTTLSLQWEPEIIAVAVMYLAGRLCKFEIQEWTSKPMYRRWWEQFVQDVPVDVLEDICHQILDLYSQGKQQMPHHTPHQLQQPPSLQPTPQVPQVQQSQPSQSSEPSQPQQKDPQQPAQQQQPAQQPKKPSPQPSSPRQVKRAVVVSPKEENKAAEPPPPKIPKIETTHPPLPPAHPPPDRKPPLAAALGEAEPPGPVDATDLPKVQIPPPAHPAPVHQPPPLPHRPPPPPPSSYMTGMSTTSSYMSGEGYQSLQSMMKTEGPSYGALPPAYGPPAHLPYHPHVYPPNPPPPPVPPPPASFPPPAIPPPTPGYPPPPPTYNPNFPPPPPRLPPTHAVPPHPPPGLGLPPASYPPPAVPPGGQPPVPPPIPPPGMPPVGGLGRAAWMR

Row | inhibition at 1 µM (CDK12/CycK complex) | 1 μM inhibitory rate (%) (CDK12/CycK complex) | Compound | inhibition at 1 µM (A2780 cells) | 1 μM inhibitory rate (%) (A2780 cells)
1 | 87% |  | COc1ncc(-c2cnc(N(C(=O)NCC3(F)CC3)[C@H]3CC[C@H](Nc4ncc(C(F)(F)F)c(-c5n[nH]cc5Cl)n4)CC3)cn2)cn1 [Example 742, 1-(trans-4-((4-(4-chloro-1H-pyrazol-3-yl)-5-(trifluoromethyl)pyrimidin-2-yl)amino)cyclohexyl)-3-((1-fluorocyclopropyl)methyl)-1-(5-(2-methoxypyrimidin-5-yl)pyrazin-2-yl)urea] | 96% | 
2 | 94% |  | COc1ncc(-c2cnc(N(C(=O)NCC(C)(C)O)[C@H]3CC[C@H](Nc4ncc(C(F)(F)F)c(-c5ccn(C(F)F)n5)n4)CC3)cn2)cn1 [Example 804, 1-(trans-4-((4-(1-(difluoromethyl)-1H-pyrazol-3-yl)-5-(trifluoromethyl)pyrimidin-2-yl)amino)cyclohexyl)-3-(2-hydroxy-2-methylpropyl)-1-(5-(2-methoxypyrimidin-5-yl)pyrazin-2-yl)urea] | 96% | 
3 | 86% |  | COc1ncc(-c2cnc(N(C(=O)NCC(C)(F)F)[C@H]3CC[C@H](Nc4ncc(C(F)(F)F)c(-c5n[nH]cc5Cl)n4)CC3)cn2)cn1 [Example 740, 1-(trans-4-((4-(4-chloro-1H-pyrazol-3-yl)-5-(trifluoromethyl)pyrimidin-2-yl)amino)cyclohexyl)-3-(2,2-difluoropropyl)-1-(5-(2-methoxypyrimidin-5-yl)pyrazin-2-yl)urea] | 96% | 
4 | 99% |  | Cn1cc(-c2cnc(N(C(=O)OCC(F)F)[C@H]3CC[C@H](Nc4ncc(C(F)(F)F)c(-c5cncc(S(C)(=O)=O)c5)n4)CC3)cn2)cn1 [Example 820, 2,2-difluoroethyl (trans-4-((4-(5-(methanesulfonyl)pyridin-3-yl)-5-(trifluoromethyl)pyrimidin-2-yl)amino)cyclohexyl) (5-(1-methyl-1H-pyrazol-4-yl)pyrazin-2-yl)carbamate] | 99% | 
5 |  | 108% | COc1ncc(-c2ccc(N(C(=O)OCCN(C)C)[C@H]3CC[C@H](Nc4ncc(C(F)(F)F)c(-c5cncc(S(C)(=O)=O)c5)n4)CC3)nc2)cn1 [Example 848, 2-(dimethylamino)ethyl (trans-4-((4-(5-(methanesulfonyl)pyridin-3-yl)-5-(trifluoromethyl)pyrimidin-2-yl)amino)cyclohexyl) (5-(2-methoxypyrimidin-5-yl)pyridin-2-yl)carbamate] |  | 99%
6 | 109% |  | CCCC(=O)N(c1ccc(-c2cnc(OC)nc2)cn1)[C@H]1CC[C@H](Nc2ncc(C(F)(F)F)c(-c3cncc(S(C)(=O)=O)c3)n2)CC1 [Example 858, N-(trans-4-((4-(5-(methanesulfonyl)pyridin-3-yl)-5-(trifluoromethyl)pyrimidin-2-yl)amino)cyclohexyl)-N-(5-(2-methoxypyrimidin-5-yl)pyridin-2-yl)butanamide] | 99% | 
7 | 100% |  | COc1ncc(-c2ccc(N(C(=O)NCC(F)F)[C@H]3CC[C@H](Nc4ncc(C(F)(F)F)c(-c5n[nH]cc5Cl)n4)CC3)nc2)cn1 [Example 693, 1-(trans-4-((4-(4-chloro-1H-pyrazol-3-yl)-5-(trifluoromethyl)pyrimidin-2-yl)amino)cyclohexyl)-3-(2,2-difluoroethyl)-1-(5-(2-methoxypyrimidin-5-yl)pyridin-2-yl)urea] | 98% | 
8 | 107% |  | CCOCC(=O)N(c1cnc(-c2cnn(C)c2)cn1)[C@H]1CC[C@H](Nc2ncc(C(F)(F)F)c(-c3cncc(S(C)(=O)=O)c3)n2)CC1 [Example 831, 2-ethoxy-N-(trans-4-((4-(5-(methanesulfonyl)pyridin-3-yl)-5-(trifluoromethyl)pyrimidin-2-yl)amino)cyclohexyl)-N-(5-(1-methyl-1H-pyrazol-4-yl)pyrazin-2-yl)acetamide] | 99% | 
9 | 106% |  | COc1ncc(-c2cnc(N(C(=O)OCC(C)(C)O)[C@H]3CC[C@H](Nc4ncc(C(F)(F)F)c(-c5cncc(S(C)(=O)=O)c5)n4)CC3)cn2)cn1 [Example 836, 2-hydroxy-2-methylpropyl (trans-4-((4-(5-(methanesulfonyl)pyridin-3-yl)-5-(trifluoromethyl)pyrimidin-2-yl)amino)cyclohexyl) (5-(2-methoxypyrimidin-5-yl)pyrazin-2-yl)carbamate] | 99% | 
10 | 103% |  | Cn1cc(-c2cnc(N(C(=O)OCC(C)(C)O)[C@H]3CC[C@H](Nc4ncc(C(F)(F)F)c(-c5cncc(S(C)(=O)=O)c5)n4)CC3)cn2)cn1 [Example 838, 2-hydroxy-2-methylpropyl (trans-4-((4-(5-(methanesulfonyl)pyridin-3-yl)-5-(trifluoromethyl)pyrimidin-2-yl)amino)cyclohexyl) (5-(1-methyl-1H-pyrazol-4-yl)pyrazin-2-yl)carbamate] | 98% | 
11 | 106% |  | COc1ncc(-c2cnc(N(C(=O)CCC(F)F)[C@H]3CC[C@H](Nc4ncc(C(F)(F)F)c(-c5cncc(S(C)(=O)=O)c5)n4)CC3)cn2)cn1 [Example 826, 4,4-difluoro-N-(trans-4-((4-(5-(methanesulfonyl)pyridin-3-yl)-5-(trifluoromethyl)pyrimidin-2-yl)amino)cyclohexyl)-N-(5-(2-methoxypyrimidin-5-yl)pyrazin-2-yl)butanamide] | 98% | 
12 | 91% |  | CCNC(=O)N(c1cnc(-c2cnn(C)c2)cn1)[C@H]1CC[C@H](Nc2ncc(C(F)(F)F)c(-c3ccn(C(F)F)n3)n2)CC1 [Example 764, 1-(trans-4-((4-(1-(difluoromethyl)-1H-pyrazol-3-yl)-5-(trifluoromethyl)pyrimidin-2-yl)amino)cyclohexyl)-3-ethyl-1-(5-(1-methyl-1H-pyrazol-4-yl)pyrazin-2-yl)urea] | 95% | 
13 | 110% |  | COc1ncc(-c2ccc(N(C(=O)NCC(C)(C)O)[C@H]3CC[C@H](Nc4ncc(C(F)(F)F)c(-c5ccn(C(F)F)n5)n4)CC3)nc2)cn1 [Example 849, 1-(trans-4-((4-(1-(difluoromethyl)-1H-pyrazol-3-yl)-5-(trifluoromethyl)pyrimidin-2-yl)amino)cyclohexyl)-3-(2-hydroxy-2-methylpropyl)-1-(5-(2-methoxypyrimidin-5-yl)pyridin-2-yl)urea] | 97% | 
14 | 92% |  | COc1ncc(-c2cnc(N(C(=O)NCC(F)F)[C@H]3CC[C@H](Nc4ncc(C(F)(F)F)c(-c5n[nH]cc5Cl)n4)CC3)cn2)cn1 [Example 744, 1-(trans-4-((4-(4-chloro-1H-pyrazol-3-yl)-5-(trifluoromethyl)pyrimidin-2-yl)amino)cyclohexyl)-3-(2,2-difluoroethyl)-1-(5-(2-methoxypyrimidin-5-yl)pyrazin-2-yl)urea] | 97% | 
15 | 96% |  | COc1ncc(-c2cnc(N(C(=O)OCC(F)F)[C@H]3CC[C@H](Nc4ncc(C(F)(F)F)c(-c5cncc(S(C)(=O)=O)c5)n4)CC3)cn2)cn1 [Example 766, 2,2-difluoroethyl (trans-4-((4-(5-(methanesulfonyl)pyridin-3-yl)-5-(trifluoromethyl)pyrimidin-2-yl)amino)cyclohexyl) (5-(2-methoxypyrimidin-5-yl)pyrazin-2-yl)carbamate] | 99% | 
16 | 96% |  | CCNC(=O)N(c1cnc(-c2cnc(OC)nc2)cn1)[C@H]1CC[C@H](Nc2ncc(C(F)(F)F)c(-c3cncc(S(C)(=O)=O)c3)n2)CC1 [Example 799, 3-ethyl-1-(trans-4-((4-(5-(methanesulfonyl)pyridin-3-yl)-5-(trifluoromethyl)pyrimidin-2-yl)amino)cyclohexyl)-1-(5-(2-methoxypyrimidin-5-yl)pyrazin-2-yl)urea] | 99% | 
17 | 92% |  | COc1ncc(-c2ccc(N(C(=O)NCC(F)(F)F)[C@H]3CC[C@H](Nc4ncc(C(F)(F)F)c(-c5n[nH]cc5Cl)n4)CC3)nc2)cn1 [Example 729, 1-(trans-4-((4-(4-chloro-1H-pyrazol-3-yl)-5-(trifluoromethyl)pyrimidin-2-yl)amino)cyclohexyl)-1-(5-(2-methoxypyrimidin-5-yl)pyridin-2-yl)-3-(2,2,2-trifluoroethyl)urea] | 98% | 
